Experimental data published in patent publication US8992945B2, “Supramacromolecular polymer complexes providing controlled nitric oxide release for healing wounds” (University of Toronto, priority 2007, dated 2015).

Columns and labels:
[1] = Kinetics of NO decomposition from RSNOs in aqueous medium (UV-Vis absorbance at 545 nm); assay type: physicochemical; details: for NO decomposition rate (order of decay slopes): 0.1 N HCl, 22° C., similar initial solution concentrations, FIG. 5
Description: In this invention, GSHEE and phytochelatin are being used for the first time as NO donors. […] Their stability in aqueous medium was explored using the UV-Vis Spectrophotometer. Solutions of all RSNOs for this stability study were synthesized according to Example 1. Their decomposition kinetics in these solutions at room temperature was obtained from the time dependent absorbance changes at 545 nm in time intervals of 10 min.
A good linearity is obtained for all three curves, from the decay slopes, it can be seen that NO decomposition rate decreases in the order of GSNO>S-Nitroso-GSHEE>S-nitroso-PC5.

[2] = NO endogenously synthesized by vascular endothelial cells; cited from earlier work

Row | NO decomposition rate (order of decay slopes) [1] | NO dissociation from GSNO ([1]; acidic and neutral medium, room condition (22° C.), FIG. 1) | Structure (SMILES) | biological half life [2]
1 | GSNO>S-Nitroso-GSHEE>S-nitroso-PC5 | continuously dissociates | N[C@@H](CCC(=O)N[C@@H](CSN=O)C(=O)NCC(=O)O)C(=O)O [GSNO, S-nitrosoglutathione] | 
2 |  |  | [N]=O [NO, nitric oxide] | ≤ 5 sec
3 | GSNO>S-Nitroso-GSHEE>S-nitroso-PC5 |  | CCOC(=O)CNC(=O)C(CSN=O)NC(=O)CCC(N)C(=O)O (stereo not shown) [S-Nitroso-GSHEE] | 
